Here are results for eleven compounds from PubChem BioAssay (NCI).

Test systems include SK-MEL-5 melanoma; A498 renal; OVCAR-3 ovarian; SF-539 CNS; SNB-19 CNS; SK-MEL-28 melanoma; CAKI-1 renal; SF-268 CNS; SN12C renal; SR leukemia.
Holding throughout (experiment): DTP human tumour cell line panel, 48 h

Several values for one entry are separate records, joined by “and”; a condition that tells them apart may be missing. Identical values can stand only once.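 Results reflect a 48-hour exposure of cells in 96-well plates to compound at five concentrations. GI50 = concentration required for 50% inhibition of growth. The concentration for full growth arrest is given as TGI.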 Where only a bound is given, the exact number is not on record here.

The TGI is the concentration at which net growth stops. A low value points to more potent growth arrest. Consider `Cc1[nH]nc(C(F)(F)F)c1N=NN(C)C`, for which the TGI in the assay with SK-MEL-5 melanoma is greater than 100 µM; in the assay with A498 renal, greater than 100 µM; with OVCAR-3 ovarian, 22.1 µM; with SF-539 CNS, 20.7 µM; with SNB-19 CNS, 28.8 µM; with SK-MEL-28 melanoma it was 33 µM. In addition, the TGI in the assay with CAKI-1 renal worked out at 3.56 µM; in the assay on SF-268 CNS, 24.1 µM; with SN12C renal, 30.1 µM; in the assay on SR leukemia, 18.8 µM.

As to `O=C1c2ccccc2-[n+]2ccc3c([nH]c4ccccc43)c21`, the TGI amounted to 0.4 µM in the assay on SK-MEL-5 melanoma; 3.15 µM with A498 renal; 0.432 µM in the assay on OVCAR-3 ovarian; 1.45 µM with SF-539 CNS; 2.27 µM in the assay on SNB-19 CNS; 1.16 µM with SK-MEL-28 melanoma. Also, the concentration for total growth inhibition (TGI) amounted to 2.07 µM with CAKI-1 renal, 1.3 µM in the assay on SF-268 CNS, 0.687 µM in the assay on SN12C renal and 0.846 µM with SR leukemia.

One may read the GI50 as the concentration giving 50% growth inhibition. Turning to `O=S(=O)(NC1=NCCN1C(=S)SN1CCn2c1nsc2=S)c1cccc2ccccc12`, the GI50 in the assay on SK-MEL-5 melanoma is 19.1 µM; with A498 renal, 29.5 µM; in the assay on OVCAR-3 ovarian, 16.5 µM; in the assay with SF-539 CNS, 21.1 µM; in the assay with SNB-19 CNS it was 62.3 µM; in the assay on SK-MEL-28 melanoma it was 58.6 µM. Besides, the GI50 with CAKI-1 renal is 22.8 µM; in the assay on SF-268 CNS, 23.3 µM; in the assay with SN12C renal, 17.2 µM; with SR leukemia, 10.2 µM. Besides, the concentration for total growth inhibition (TGI) with SK-MEL-5 melanoma is 54.4 µM; in the assay with A498 renal, 78 µM; in the assay on OVCAR-3 ovarian, 40.3 µM; with SF-539 CNS, 46 µM; in the assay on SNB-19 CNS, greater than 100 µM; with SK-MEL-28 melanoma, greater than 100 µM. Further, the TGI was 69.7 µM in the assay on CAKI-1 renal, greater than 100 µM in the assay with SF-268 CNS, 37.6 µM in the assay with SN12C renal and 45.6 µM in the assay with SR leukemia.

In the case of `O=c1/c(=C/c2ccccc2[N+](=O)[O-])sc2nc3ccccc3n12`, the TGI was greater than 46.4 µM in the assay with SK-MEL-5 melanoma; greater than 41.6 µM with A498 renal; greater than 31.6 µM in the assay with OVCAR-3 ovarian; 37.9 µM with SF-539 CNS; greater than 77.9 µM with SNB-19 CNS; greater than 46.4 µM with SK-MEL-28 melanoma. Further, the TGI in the assay on CAKI-1 renal was greater than 100 µM; with SF-268 CNS, greater than 46.4 µM; in the assay on SN12C renal it was greater than 46.4 µM; in the assay with SR leukemia, 25 µM.

With `COc1ccc(/C=C/C(=O)/C=C/c2cc3ccccc3[nH]c2=O)cc1`, the GI50 is 11 µM in the assay with SK-MEL-5 melanoma; 5.73 µM with A498 renal; 2.85 µM with OVCAR-3 ovarian; 2.63 µM in the assay on SF-539 CNS; 10.6 µM in the assay with SNB-19 CNS; 13.9 µM with SK-MEL-28 melanoma. In addition, the GI50 in the assay with CAKI-1 renal was 4.3 µM; in the assay on SF-268 CNS it was 3.11 µM; in the assay with SN12C renal, 2.41 µM; in the assay on SR leukemia it was 2.88 µM. Further, the TGI came out at 25.1 µM with SK-MEL-5 melanoma; 18.8 µM in the assay on A498 renal; 7.91 µM in the assay with OVCAR-3 ovarian; 7.13 µM with SF-539 CNS; 29 µM in the assay with SNB-19 CNS; 34.7 µM in the assay on SK-MEL-28 melanoma. Also, the TGI is 17.8 µM with CAKI-1 renal, 11.4 µM in the assay on SF-268 CNS, 6.73 µM with SN12C renal and 8.65 µM with SR leukemia.

Take `Cc1ccc(NC(=O)CCc2nc(N)nc(N)c2-c2ccccc2)cc1C`: the TGI with SK-MEL-5 melanoma, in the assay with A498 renal, with OVCAR-3 ovarian, in the assay on SF-539 CNS, in the assay on SNB-19 CNS and in the assay with SK-MEL-28 melanoma was greater than 100 µM in each case. In addition, the TGI in the assay with CAKI-1 renal, in the assay on SF-268 CNS, in the assay on SN12C renal and in the assay with SR leukemia was greater than 100 µM each time.

`C=CCNc1nc2c(s1)C(=O)c1ccccc1C2=O`: the TGI in the assay with SK-MEL-5 melanoma was 3.1 µM; in the assay with A498 renal, 34 µM; in the assay on OVCAR-3 ovarian, 37.6 µM; in the assay with SF-539 CNS it was 16.7 µM; in the assay with SNB-19 CNS it was 19.2 µM; in the assay with SK-MEL-28 melanoma, 32.8 µM. The TGI in the assay with CAKI-1 renal is 26.8 µM; with SF-268 CNS it was 26 µM; with SN12C renal, 27.4 µM; in the assay with SR leukemia it was greater than 100 µM.

In the case of `CC1CCC2(NC1)OC1CC3C4CC=C5CC(O)CCC5(C)C4CCC3(C)C1C2C` (stereo not drawn), the GI50 was 59 µM and 27.3 µM in the assay on SK-MEL-5 melanoma; 18.7 µM and 5.56 µM with A498 renal; 28 µM and 8.98 µM in the assay with OVCAR-3 ovarian; 18.9 µM and 6.38 µM with SNB-19 CNS; 56.4 µM and 25.6 µM with SK-MEL-28 melanoma; 25.5 µM and 11.2 µM in the assay with CAKI-1 renal. Further, in the assay with SF-268 CNS, the GI50 is 39.8 µM and 16.1 µM. For the same compound, the TGI was greater than 100 µM with SK-MEL-5 melanoma; 38.5 µM and 14.5 µM in the assay on A498 renal; > 100 µM and 32.5 µM in the assay on OVCAR-3 ovarian; 40.1 µM and 29.4 µM in the assay with SF-539 CNS; 99.5 µM and 62.1 µM in the assay on SNB-19 CNS; greater than 100 µM with SK-MEL-28 melanoma. Also, the TGI with CAKI-1 renal is 71.6 µM and 33 µM; with SF-268 CNS it was greater than 100 µM; with SN12C renal, 50.8 µM and 38.4 µM; with SR leukemia, 9.63 µM and 12.4 µM.

Take `CC1=Nc2c(ccc3c2C(=O)c2ccccc2C3=O)NC(c2cccc3c2CCC3)C1` (stereo not drawn): the TGI in the assay with SK-MEL-5 melanoma, with A498 renal, with OVCAR-3 ovarian, in the assay with SF-539 CNS, in the assay with SNB-19 CNS and with SK-MEL-28 melanoma was greater than 100 µM in each case. Moreover, the TGI was greater than 96.8 µM with CAKI-1 renal, greater than 100 µM in the assay on SF-268 CNS, greater than 100 µM in the assay on SN12C renal and greater than 100 µM in the assay with SR leukemia.

For the compound `COC12CCC(=O)C=C1c1ccccc1N2C(C)=O` (stereo not drawn), the total growth inhibition concentration (TGI) in the assay on A498 renal, in the assay with OVCAR-3 ovarian, with SF-539 CNS, with SNB-19 CNS, in the assay with SK-MEL-28 melanoma and in the assay with CAKI-1 renal was greater than 100 µM throughout. The TGI in the assay with SN12C renal and with SR leukemia was greater than 100 µM in each case.

As for `COc1cccc(/C(C#N)=C/c2nc3c(N4CCOCC4)nc(Cl)nc3n2C)c1`, the GI50 was 1.73 µM in the assay on SK-MEL-5 melanoma; 1.49 µM in the assay on A498 renal; 0.611 µM with OVCAR-3 ovarian; 1.44 µM in the assay on SF-539 CNS; 1.61 µM in the assay on SK-MEL-28 melanoma; 0.621 µM in the assay with CAKI-1 renal. For the same compound, the GI50 in the assay with SF-268 CNS is 1.57 µM; in the assay on SN12C renal it was 1.1 µM; in the assay with SR leukemia, 0.355 µM. Also, the TGI with SK-MEL-5 melanoma is 3.14 µM; in the assay with A498 renal it was 2.91 µM; with OVCAR-3 ovarian, 1.92 µM; in the assay on SF-539 CNS, 2.79 µM; with SK-MEL-28 melanoma, 3.1 µM; in the assay with CAKI-1 renal it was 1.99 µM. In addition, the TGI worked out at 3.17 µM in the assay with SF-268 CNS, 2.45 µM with SN12C renal and 2.44 µM in the assay with SR leukemia.
